Laboratory results from patent US4727090A, “Process for preparing and therapeutical applications of the 2,4,6-triiodophenol” (Bislak, S.A., priority 1983, dated 1988).

What was measured:
waste (minute volume) = assay: Waste / minute volume by echo-Doppler in cardiovascular patients (peripheral hyperemia); type: in vivo; conditions: 30 mg/day intramuscular
Source text: (§1) The technology used to show the hemodynamic changes was of the non-invasivetype, as in this way experiments can be repeated and are completely innoxious for the patient. Of all the non-invasive methods of diagnosis we selected the most reliable of actual conditions, which is the method of ultrasounds (echo and Doppler's effects). The bidimensional echocardiography in real time, combined with pulsatile Doppler and the bidimensional vascular echography combined with pulsatile Doppler hemodynamic, are actually the two most reliable non-invasive techniques for the study of the anatomic changes and macroscopic hemodynamics with regard to the cardiovascular apparatus. That's why we used for the study of the clinical effects of the 2,4,6-triiodophenol an echo-Doppler trade mark ATL (Mark V), being the transmission frequency of 3 MHz, as well as a continuous Doppler trade mark SONICAID of 4 and 8 MHz.
(§2) Patients were divided in four statistically acceptable groups (50 in each group), comparing the results obtained with this medicament before, during and after the treatment.
(§3) Methodologically there are practiced echographical cuts in real time of the heart, big vases, supra-aortic trunks, abdominal aorta, portal and caval systems and iliac and femoral arteries, obtaining fluxmetric samples Doppler in all the mentioned cardiac cavities and blood vessels to study the sense of the flow, outflow (stream) or volume of flow and the hemodynamic features of the sanguineous flow.
(§4) Hereunder we expose the clinical results obtained after the administration during three months of the 2,4,6-triiodophenol in 200 cardiovascular patients.
(§5) Sick persons were divided in 4 groups; (1) 50 patients with cerebral vascular insufficiency, (2) 50 patients with coronary insufficiency, (3) 50 patients with hepatic insufficiency and (4) 50 patients with peripheral vascular insufficiency of the lower extremities. All these persons received an intramuscular administration, a dosage of 30 mg/day of 2,4,6-triiodophenol, carrying out controls at the first, second and third month of all angiohemodynamic parameters, supposing a total of 600 controls (150 per each group after the three months).

cardiac contractility = assay: Cardiac contractility in cardiovascular patients (inotropic effect); type: in vivo; conditions: 30 mg/day intramuscular
Source text: as §1, §2, §3, §4, §5

Carrageenin leg oedema = Carrageenin leg oedema test; type: in vivo, white rats; conditions: for inhibition at 5 mg/kg: Rattus norvegicus, 5 mg/kg oral
Experimental: (A) The antiinflammatory action is shown in white rats, of a weight of about 200-225 g, having provoked in these animals the leg oedema by means of an injection in the sole of the foot of 0.1 ml of a 1% Carrageenin solution.
One control group of ten animals, another the same medicated with indomethacin via oral at 30 mg/kg, in suspension in a carboxymethylcellulose solution, another group of ten rats, medicated with triiodophenol in oral solution at 5 mg/kg, another group medicated with triioodophenol at 1 mg/kg, injected via intramuscular and another group medicated with triiodophenol at 0.5 mg/kg via intramuscular. All medications are administered simultaneously to the formation of Edema.
The volume of the same is measured at 0 hours, 3 hours, 4 hours, 5 hours and 6 hours with a mercury Plestimograph.

[1] = test system: sensation of pain on hot plate; assay: Hot plate test at 56° C; type: in vivo, mice
Experimental: (A) To control analgesic activity we use mice of about 25 g by weight, in groups of ten mice, subjected to the test of the hot plate at 56° C.
Animals receive a medicamentous injection of 0.1 ml of solubilized aspirin with sodium bicarbonate, or of solubilized triiodophenol at pH 9'5.
Controls receive physiologic serum.
The time in which the animals indicate sensation of pain is measured with a chronometer.
In the hereunder table the results testing animals, 15 min. and 30 min. after the medication. Average values are taken of each group.

vascular surface = assay: Vascular caliber by echo-Doppler in cardiovascular patients (vasodilatory action); type: in vivo; conditions: 30 mg/day intramuscular
Source text: as §1, §2, §3, §4, §5

[2] = test system: arthrosis and atherosclerosis patients; assay: Summary of 175 clinic cases treated; type: in vivo
Source text: Summary of 175 clinic cases treated with 2,4,6-triiodophenol.

[3] = cerebral atherosclerosis, 37 patients
[4] = cervical arthrosis, 34 patients
[5] = obliterant atherosclerosis, 14 patients
[6] = vertebral arthrosis, 56 patients

Q: For `Oc1c(I)cc(I)cc1I` [2,4,6-triiodophenol], which “Cardiac waste, variation (Δ %)” value (waste (minute volume); 1st month) is on record?
A: +5%

Q: And the “Cerebral minute volume, variation (Δ %)” value (waste (minute volume); 1st month)?
A: +23%

Q: And the “Hepatic minute volume (venous), variation (Δ %)” value (“Hepatic minute volume … (Δ %)” below) (waste (minute volume); 1st month)?
A: +24%

Q: And the “Lower extremity minute volume, variation (Δ %)” value (waste (minute volume); 1st month)?
A: +10%

Q: What about the “Cardiac waste, variation (Δ %)” value (waste (minute volume); 2nd month) of the same molecule?
A: +6%

Q: What about the “Cerebral minute volume, variation (Δ %)” value (waste (minute volume); 2nd month) of the same molecule?
A: +27,6%

Q: And the “Hepatic minute volume … (Δ %)” value (waste (minute volume); 2nd month)?
A: +16%

Q: What about the “Lower extremity minute volume, variation (Δ %)” value (waste (minute volume); 2nd month) of the same molecule?
A: +24%

Q: What about the “Cardiac waste, variation (Δ %)” value (waste (minute volume); 3rd month) of the same molecule?
A: +11%

Q: What about the “Cerebral minute volume, variation (Δ %)” value (waste (minute volume); 3rd month) of the same molecule?
A: +34%

Q: And the “Hepatic minute volume … (Δ %)” value (waste (minute volume); 3rd month)?
A: +23%

Q: What about the “Lower extremity minute volume, variation (Δ %)” value (waste (minute volume); 3rd month) of the same molecule?
A: +30%

Q: What about the “Increase of volume of flow, cerebral” value (waste (minute volume); conclusions, three months) of the same molecule?
A: 34%

Q: And the “Increase of volume of flow, hepatic” value (waste (minute volume); conclusions, three months)?
A: 23%

Q: And the “Increase of volume of flow, lower member” value (waste (minute volume); conclusions, three months)?
A: 30%

Q: And the “Increase of volume of flow, systemic circulatory minute” value (waste (minute volume); conclusions, three months)?
A: 11%

Q: What about the “Ejection fraction, variation (Δ %)” value (cardiac contractility; 1st month) of the same molecule?
A: -9,1%

Q: And the “Ejection volume, variation (Δ %)” value (cardiac contractility; 1st month)?
A: -9%

Q: And the “Telediastolic volume, variation (Δ %)” value (cardiac contractility; 1st month)?
A: -3%

Q: What about the “Telesystolic volume, variation (Δ %)” value (cardiac contractility; 1st month) of the same molecule?
A: +8%

Q: What about the “Ejection fraction, variation (Δ %)” value (cardiac contractility; 2nd month) of the same molecule?
A: -8,8%

Q: What about the “Ejection volume, variation (Δ %)” value (cardiac contractility; 2nd month) of the same molecule?
A: -8,4%

Q: What about the “Telediastolic volume, variation (Δ %)” value (cardiac contractility; 2nd month) of the same molecule?
A: -5%

Q: What about the “Telesystolic volume, variation (Δ %)” value (cardiac contractility; 2nd month) of the same molecule?
A: +11%

Q: What about the “Ejection fraction, variation (Δ %)” value (cardiac contractility; 3rd month) of the same molecule?
A: -8,6%

Q: And the “Ejection volume, variation (Δ %)” value (cardiac contractility; 3rd month)?
A: -8%

Q: And the “Telediastolic volume, variation (Δ %)” value (cardiac contractility; 3rd month)?
A: -6%

Q: What about the “Telesystolic volume, variation (Δ %)” value (cardiac contractility; 3rd month) of the same molecule?
A: +13%

Q: And the “% inhibition (oedema)” value (Carrageenin leg oedema; 0,5 mg/kg inj. (intramuscular), 3 hours)?
A: 20%

Q: What about the “% inhibition (oedema)” value (Carrageenin leg oedema; 0,5 mg/kg inj. (intramuscular), 4 hours) of the same molecule?
A: 42%

Q: And the “% inhibition (oedema)” value (Carrageenin leg oedema; 0,5 mg/kg inj. (intramuscular), 5 hours)?
A: 49%

Q: And the “% inhibition (oedema)” value (Carrageenin leg oedema; 0,5 mg/kg inj. (intramuscular), 6 hours)?
A: 60%

Q: What about the “% inhibition (oedema)” value (Carrageenin leg oedema; 1 mg/kg inj. (intramuscular), 4 hours) of the same molecule?
A: 66%

Q: What about the “% inhibition (oedema)” value (Carrageenin leg oedema; 1 mg/kg inj. (intramuscular), 5 hours) of the same molecule?
A: 75%

Q: And the “% inhibition (oedema)” value (Carrageenin leg oedema; 1 mg/kg inj. (intramuscular), 6 hours)?
A: 82%

Q: And the inhibition at 5 mg/kg (Carrageenin leg oedema; 3 hours)?
A: 43%

Q: And the inhibition at 5 mg/kg (Carrageenin leg oedema; 4 hours)?
A: 50%

Q: And the inhibition at 5 mg/kg (Carrageenin leg oedema; 5 hours)?
A: 57%

Q: And the inhibition at 5 mg/kg (Carrageenin leg oedema; 6 hours)?
A: 65%

Q: And the “Time to sensation of pain” value ([1]; 1 mg/kg injection, 15 minutes)?
A: 6,5 sec.

Q: What about the “Time to sensation of pain” value ([1]; 1 mg/kg injection, 30 minutes) of the same molecule?
A: 6,7 sec.

Q: And the “Time to sensation of pain” value ([1]; 10 mg/kg injection, 15 minutes)?
A: 11,7 sec.

Q: And the “Time to sensation of pain” value ([1]; 10 mg/kg injection, 30 minutes)?
A: 11,8 sec.

Q: And the “Vascular caliber, abdominal aorta, variation (Δ %)” value (vascular surface; 1st month)?
A: +6%

Q: What about the “Vascular caliber, caval iliac artery, variation (Δ %)” value (vascular surface; 1st month) of the same molecule?
A: +8%

Q: What about the “Vascular caliber, portal carotid aorta, variation (Δ %)” value (vascular surface; 1st month) of the same molecule?
A: +11%

Q: And the “Vascular caliber, portal system, variation (Δ %)” value (vascular surface; 1st month)?
A: -13%

Q: And the “Vascular caliber, postcaval system, variation (Δ %)” value (vascular surface; 1st month)?
A: -9%

Q: What about the “Vascular caliber, thoracic aorta, variation (Δ %)” value (vascular surface; 1st month) of the same molecule?
A: +3%

Q: And the “Vascular caliber, abdominal aorta, variation (Δ %)” value (vascular surface; 2nd month)?
A: +11%

Q: And the “Vascular caliber, caval iliac artery, variation (Δ %)” value (vascular surface; 2nd month)?
A: +12%

Q: And the “Vascular caliber, portal carotid aorta, variation (Δ %)” value (vascular surface; 2nd month)?
A: +12%

Q: What about the “Vascular caliber, portal system, variation (Δ %)” value (vascular surface; 2nd month) of the same molecule?
A: -23%

Q: And the “Vascular caliber, postcaval system, variation (Δ %)” value (vascular surface; 2nd month)?
A: -14%

Q: What about the “Vascular caliber, thoracic aorta, variation (Δ %)” value (vascular surface; 2nd month) of the same molecule?
A: +7%

Q: What about the “Vascular caliber, abdominal aorta, variation (Δ %)” value (vascular surface; 3rd month) of the same molecule?
A: +13%

Q: What about the “Vascular caliber, caval iliac artery, variation (Δ %)” value (vascular surface; 3rd month) of the same molecule?
A: +15%

Q: And the “Vascular caliber, portal carotid aorta, variation (Δ %)” value (vascular surface; 3rd month)?
A: +13%

Q: What about the “Vascular caliber, portal system, variation (Δ %)” value (vascular surface; 3rd month) of the same molecule?
A: -26%

Q: What about the “Vascular caliber, postcaval system, variation (Δ %)” value (vascular surface; 3rd month) of the same molecule?
A: -13%

Q: What about the “Vascular caliber, thoracic aorta, variation (Δ %)” value (vascular surface; 3rd month) of the same molecule?
A: +9%

Q: What about the “% obtained results, B. (good)” value [2, 3] of the same molecule?
A: 6,25%

Q: And the “% obtained results, E. (excellent)” value [2, 3]?
A: 81,25%

Q: And the “% obtained results, N. (null)” value [2, 3]?
A: 3,15%

Q: And the “% obtained results, R. (regular)” value [2, 3]?
A: 9,35%

Q: What about the “% obtained results, B. (good)” value [2, 4] of the same molecule?
A: 3,22%

Q: What about the “% obtained results, E. (excellent)” value [2, 4] of the same molecule?
A: 90,34%

Q: And the “% obtained results, N. (null)” value [2, 4]?
A: 3,22%

Q: And the “% obtained results, R. (regular)” value [2, 4]?
A: 3,22%

Q: And the “% obtained results, B. (good)” value ([2]; hip arthrosis, 13 patients)?
A: 23,10%

Q: What about the “% obtained results, B. (good)” value ([2]; knee arthrosis, 16 patients) of the same molecule?
A: 12,5%

Q: What about the “% obtained results, E. (excellent)” value ([2]; knee arthrosis, 16 patients) of the same molecule?
A: 81,25%

Q: And the “% obtained results, R. (regular)” value ([2]; knee arthrosis, 16 patients)?
A: 6,25%

Q: And the “% obtained results, B. (good)” value ([2]; lumbar arthrosis, 4 patients)?
A: 25%

Q: And the “% obtained results, E. (excellent)” value ([2]; lumbar arthrosis, 4 patients)?
A: 50%

Q: And the “% obtained results, R. (regular)” value ([2]; lumbar arthrosis, 4 patients)?
A: 25%

Q: What about the “% obtained results, E. (excellent)” value ([2]; obliterant arthrosis, 1 patient) of the same molecule?
A: 100%

Q: What about the “% obtained results, B. (good)” value [2, 5] of the same molecule?
A: 7,15%

Q: What about the “% obtained results, E. (excellent)” value [2, 5] of the same molecule?
A: 92,85%

Q: What about the “(B) Good result, % of patients” value ([2]; total 175 patients) of the same molecule?
A: 7,43%

Q: And the “(B) Good result, number of patients” value ([2]; total 175 patients)?
A: 13

Q: What about the “(E) Excellent result, % of patients” value ([2]; total 175 patients) of the same molecule?
A: 82,86%

Q: What about the “(E) Excellent result, number of patients” value ([2]; total 175 patients) of the same molecule?
A: 145

Q: What about the “(N) Null result, % of patients” value ([2]; total 175 patients) of the same molecule?
A: 1,71%

Q: What about the “(N) Null result, number of patients” value ([2]; total 175 patients) of the same molecule?
A: 3

Q: And the “(R) Regular result, % of patients” value ([2]; total 175 patients)?
A: 8,00%

Q: And the “(R) Regular result, number of patients” value ([2]; total 175 patients)?
A: 14

Q: And the “% obtained results, B. (good)” value [2, 6]?
A: 10,42%

Q: What about the “% obtained results, E. (excellent)” value [2, 6] of the same molecule?
A: 83,33%

Q: And the “% obtained results, R. (regular)” value [2, 6]?
A: 6,25%
